Source: patent EP2262764B1, “NOVEL N-BENZYLAMIDE SUBSTITUTED DERIVATIVES OF 2-(ACYLAMIDO)ACETIC ACID AND 2-(ACYLAMIDO)PROPIONIC ACIDS: POTENT NEUROLOGICAL AGENTS” (The University of North Carolina At Chapel Hill, priority 2008, dated 2009)

Experiments:
[1] = system: maximal electroshock (MES)-induced seizures; assay: maximal electroshock seizure (MES) test, mice ip; conditions: for PI: Mice (ip), PI = TD50/ED50; for ED50: Mus musculus, ip
Description: The structure-activity relationship of functionalized amino acids (1).

[2] = system: neurologic toxicity; assay: neurologic toxicity (Tox), rat po; type: in vivo; conditions: for TD50: in vivo
[3] = system: maximal electroshock (MES)-induced seizures; assay: maximal electroshock seizure (MES) test, rat po; conditions: for PI: PI = TD50/ED50; for ED50: Rattus norvegicus, po
[4] = system: neurologic toxicity; assay: neurologic toxicity (Tox), rotorod test, mice ip; conditions: for TD50: mouse, in vivo, ip, Tox, TD50, Mice (ip)
[5] = neurologic toxicity (Tox), rat po; type: in vivo; conditions: in vivo, time in hours in brackets
[6] = neurologic toxicity (Tox), rotorod test, mice ip; conditions: mouse, in vivo, ip, Tox, TD50, Mice (ip); time in hours in second brackets; [x; y] = between doses x and y
[7] = system: 6 Hz seizure model; assay: 6 Hz seizure model, mice ip
[8] = read-out: MES, ED50, Mice (ip), time in hours in second brackets, [x, y] = between doses x and y
[9] = read-out: MES, ED50, mice, intraperitoneally (ip), 95% confidence intervals in parentheses
[10] = time in hours in second brackets, [x, y] = between doses x and y
[11] = read-out: MES, ED50, Rat (po), time in hours in brackets
[12] = read-out: MES, ED50, Rat (po), time of peak effect in hours in brackets in the cell
[13] = read-out: MES, ED50, Mice (ip), time of peak effect in hours in brackets in the cell
[14] = time in hours in brackets in the cell
[15] = rotorod test, time of peak effect in hours in brackets in the cell

COCC#Cc1ccc(CNC(=O)[C@@H](COC)NC(C)=O)cc1 [(R)-6, (R)-2-Acetamido-3-methoxy-N-(4-(3-methoxyprop-1-ynyl)benzyl)propanamide, reference compound]
PI [1]: ∼2.8 | ED50 [1, 8]: 3 to 10 mg/kg | ED50 [1, 9]: 26 mg/kg | TD50 ([2]; time in hours in brackets): < 30 mg/kg | PI ([3]; Rat (po)): > 30 | Tox (death) ([4]; Mice (ip), observation printed in the Tox, TD50 column): Death at 100 | TD50 [4, 10]: 10 to 30 mg/kg

C#CCOC[C@@H](NC(C)=O)C(=O)NCc1ccc(N=[N+]=[N-])cc1 [(R)-8]
ED50 ([1]; read-out: MES, ED50): 20 mg/kg | TD50 [5]: > 500 mg/kg | ED50 [3, 11]: 45 mg/kg | ED50 [3, 12]: 12 mg/kg | TD50 [6]: 100 to 300 mg/kg

COC[C@H](NC(C)=O)C(=O)NCc1ccc(OCc2cccc(F)c2)cc1 [(S)-3, (S)-2-Acetamido-N-(4-(3-fluorobenzyloxy)benzyl)-3-methoxypropanamide]
ED50 [1, 8]: > 300 mg/kg | TD50 [4, 10]: > 300 mg/kg

COC[C@@H](NC(C)=O)C(=O)NCc1ccc(OCc2cccc(F)c2)cc1 [(R)-3, (R)-2-Acetamido-N-(4-(3-fluorobenzyloxy)benzyl)-3-methoxypropanamide]
PI [1]: ∼9.3 | ED50 [1, 8]: 10 to 30 mg/kg | TD50 ([2]; time in hours in brackets): > 30 mg/kg | Tox, TD50 ([2]; time in hours in brackets): > 500 [0.5] mg/kg | 6Hz, ED50 (given as fraction) ([7]; Mice (ip), […], dose not given): 2/4 [0.25] | PI ([3]; Rat (po)): > 36

CCC1(c2ccccc2)C(=O)NC(=O)NC1=O [Phenobarbital, reference compound]
ED50 [1, 8]: 22 mg/kg | ED50 [1, 13]: 22 mg/kg | Tox, TD50 ([2]; time in hours in brackets): 61 [0.5] mg/kg | Tox, TD50 [2, 14]: 61 [0.5] mg/kg | ED50 [3, 11]: 9.1 mg/kg | ED50 [3, 12]: 9 mg/kg

CC(=O)NC(C)C(=O)NCc1ccccc1 (racemic) [(R,S)-4]
ED50 ([1]; read-out: MES, ED50): 77 mg/kg

C=CCOCC(NC(C)=O)C(=O)NCc1ccccc1 (racemic) [(R,S)-11]
ED50 ([1]; read-out: MES ED50, values of the running text, mice (ip)): 30 to 100 mg/kg

COC[C@H](NC(C)=O)C(=O)NCc1ccc(N=[N+]=[N-])cc1 [(S)-5, (S)-N-(4-Azidobenzyl)-2-acetamido-3-methoxypropanamide, reference compound]
ED50 [1, 8]: 100 to 300 mg/kg | ED50 [1, 9]: > 25 mg/kg | TD50 ([2]; time in hours in brackets): > 30 mg/kg | ED50 ([7]; Mus musculus, ip, read-out: 6Hz, ED50): ~100 mg/kg | ED50 [3, 11]: > 30 mg/kg | Tox, TD50 ([4]; Mice (ip), time in hours in second brackets, [x, y] = between doses x and y): > 300 mg/kg

C#CCOC[C@H](NC(C)=O)C(=O)NCc1ccc(N=C=S)cc1 [(S)-9, (S)-N-(4-Isothiocyanatobenzyl)-2-acetamido-3-(prop-2-ynyloxy)propanamide]
ED50 ([1]; read-out: MES, ED50): > 300 mg/kg | TD50 [4, 15]: > 300 mg/kg

C#CCOC[C@H](NC(C)=O)C(=O)NCc1ccc(N=[N+]=[N-])cc1 [(S)-8, (S)-N-(4-Azidobenzyl)-2-acetamido-3-(prop-2-ynyloxy)propanamide]
ED50 [1, 13]: 163 mg/kg | TD50 [2, 14]: > 30 mg/kg | ED50 [3, 12]: > 30 mg/kg | TD50 [4, 15]: > 300 mg/kg

O=C1NC(=O)C(c2ccccc2)(c2ccccc2)N1 [phenytoin, reference compound]
TD50 [2, 14]: > 3000 mg/kg | MES, ED50 ([3]; Rat (po), time in hours in brackets): 30 [4] mg/kg | ED50 ([3]; read-out: MES, ED50): 30 mg/kg

CC(=O)N[C@@H](C)C(=O)NCc1ccccc1 [(S)-4]
ED50 ([1]; read-out: MES, ED50): 550 mg/kg
